Our source for the MIC values is ChEMBL document CHEMBL1629535, “Novel small molecule inhibitors of MDR Mycobacterium tuberculosis by NMR fragment screening of antigen 85C” (2010).

In brackets after ≈: the same amount, converted by molar mass.

Format in all cases: functional
In experiment [1] the test system is Mycobacterium tuberculosis. As to the kind of experiment: Growth inhibition of Mycobacterium tuberculosis H37 by radiometric BACTEC 460 assay.
Experiment [2] has as its system Mycolicibacterium smegmatis. The experiment is described as follows: Growth inhibition of Mycobacterium smegmatis.
The subject of another experiment is Mycolicibacterium aurum. As to the kind of experiment: Growth inhibition of multidrug resistance Mycobacterium aurum.

For the molecule `CCCOc1ccc2nc(N)sc2c1`, the MIC in experiment [1] stood at 20 µg/mL (≈ 96 µM); in experiment [2] it was 32 µg/mL (≈ 154 µM).
`[N-]=[N+]=NC[C@H]1O[C@H](O[C@H]2O[C@H](CO)[C@@H](O)[C@H](O)[C@H]2O)[C@H](O)[C@@H](O)[C@@H]1O` showed an MIC in the experiment with Mycolicibacterium aurum of 200 µg/mL (≈ 544 µM).
Turning to `N#Cc1c(N)sc2c1CCCCC2`, the minimum inhibitory concentration (MIC) was more than 500 µg/mL in experiment [1] and 64 µg/mL (≈ 333 µM) in experiment [2].
The molecule `CCC1CCc2c(sc(N)c2C(N)=O)C1` (configuration not stated) had an MIC in experiment [2] of 64 µg/mL (≈ 285 µM).
With `CCCC1CCc2c(sc(N)c2C#N)C1` (configuration not stated), the minimal inhibitory concentration (MIC) in experiment [1] was determined as 50 µg/mL (≈ 227 µM); in experiment [2], 16 µg/mL (≈ 72.6 µM).
The molecule `CC1CCc2c(sc(N)c2C(N)=O)C1` (configuration not stated) showed a minimal inhibitory concentration (MIC) in experiment [2] of more than 32 µg/mL.
With `CCC1CCc2c(sc(N)c2C#N)C1` (configuration not stated), the results for the minimal inhibitory concentration (MIC) in experiment [1] and in experiment [2] were 50 µg/mL (≈ 242 µM) and 32 µg/mL (≈ 155 µM), respectively.
As for `CCCC1CCc2c(sc(N)c2C(N)=O)C1` (configuration not stated), the MIC in experiment [2] was 64 µg/mL (≈ 269 µM).

One may read the MIC as the smallest concentration in the dilution series that meets the test's criterion for growth inhibition. Low values mean inhibition by little substance, high ones a need for much substance.
